This note sets out measurements from PubChem BioAssay (NCI).

What all share (test): NCI-60 cell line screen, 48 h
Assay [1] deals with EKVX NSCLC.
For assay [2], the system named is HCT-15 colon.
In assay [3] the test system is HOP-62 NSCLC.
The test system of assay [4] is HT29 colon.
In assay [5] the test system is OVCAR-8 ovarian.
Assay [6] concerns SK-MEL-28 melanoma.
In assay [7] the test system is SK-OV-3 ovarian.
In assay [8] the test system is SR leukemia.
Assay [9] deals with UACC-62 melanoma.
For assay [10], the system named is OVCAR-4 ovarian.

Molecules are shown by their SMILES.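 Following 48 hours of exposure in 96-well plates, responses at five concentrations were used to interpolate endpoints linearly. GI50 = concentration required for 50% inhibition of growth. At the TGI there is no net growth.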

For the compound `CCCCOC(=O)c1ccc(NC(=O)CCl)cc1`, the GI50 is 2.37 µM in [1]; 1.43 µM in assay [2]; 1.99 µM in assay [3]; 1.9 µM in assay [4]; 2.29 µM in [5]; 3.87 µM in assay [6]. The GI50 in [7] is 10.5 µM; in [8] it was 1.67 µM; in assay [9] it was 2.74 µM. Further, the TGI in assay [1] stood at 7.13 µM; in [2] it was 3.19 µM; in [3], 3.96 µM; in assay [4], 3.48 µM; in [5] it was 4.73 µM; in assay [6] it was 13.6 µM. Besides, the TGI was found to be 22.6 µM in assay [7], 3.85 µM in assay [8] and 13.3 µM in assay [9].

In the case of `CCCCCCCCC(O)C#CC(N)=O` (stereo not given), the TGI in assay [1] amounted to 23.6 µM; in [2] it was 30.9 µM; in [4], 24.5 µM; in [10], 12 µM; in assay [5], 21.4 µM; in assay [6] it was 31.8 µM. The TGI stood at 52.9 µM in assay [8] and 19.9 µM in assay [9].

In the case of `Cc1ccc(C(=O)/C(=C\c2ccc([N+](=O)[O-])cc2)S(=O)Cc2ccc(F)cc2)cc1` (stereo not given), the GI50 in assay [1] is 1.78 µM; in assay [2] it was 1.45 µM; in [3] it was 2.35 µM; in [10], 1.73 µM; in assay [5], 1.88 µM; in assay [6] it was 1.82 µM. Further, the GI50 in assay [7] was 10.8 µM; in assay [8] it was 0.703 µM; in assay [9], 1.53 µM. Besides, the TGI in [1] is 3.8 µM; in assay [2], 3.5 µM; in [3], 6.3 µM; in [10], 3.54 µM; in [5], 4.08 µM; in [6], 3.59 µM. Also, the TGI in assay [7] amounted to 23.2 µM; in [8], 12.6 µM; in [9] it was 2.97 µM.

Regarding `COC(=O)c1ccc(NC(=O)c2cc(OC)c(OC)c(OC)c2)cc1`, the TGI in assay [1], in [3], in assay [4], in assay [10], in assay [5] and in assay [6] was greater than 100 µM throughout. The TGI in assay [7] is 98.4 µM; in [8], greater than 72.8 µM; in assay [9], greater than 100 µM.

As to `CC1(C)N=C(N)N=C(N)N1c1ccc(CCc2ccc(Cl)cc2S(=O)(=O)F)c(Cl)c1`, the GI50 in [1] is 11.3 µM; in assay [2] it was 92.8 µM; in [3] it was 7 µM; in assay [10], 9.09 µM; in [5] it was 7.2 µM; in [6], 7.99 µM. In addition, the figures for the GI50 in [7], in assay [8] and in [9] were 19.1 µM, 6.05 µM and 4.57 µM, respectively. The TGI in [1] was greater than 100 µM; in assay [2], greater than 100 µM; in assay [3], 23 µM; in assay [10], 84.5 µM; in assay [5], 69.1 µM; in assay [6], 23.4 µM. Besides, the TGI in [7] is greater than 100 µM; in assay [8], 76.5 µM; in assay [9], 31.5 µM.

Take `COc1ccc2c(c1)c1nc3cc(C)c(C)cc3nc1n2CCN(C)C`: the GI50 was 1.16 µM in assay [1]; 0.417 µM in assay [2]; 0.899 µM in [3]; 0.529 µM in assay [4]; 1.03 µM in [10]; 1.65 µM in assay [6]. For the same compound, the GI50 in [7] is 1.5 µM; in [8] it was 0.428 µM; in assay [9], 0.884 µM. Moreover, the TGI in assay [1] was 2.85 µM; in [2], 1.77 µM; in assay [3], 3.37 µM; in [4], 1.94 µM; in assay [10], 2.43 µM; in [6], 3.29 µM. In addition, the results for the TGI in [7], in assay [8] and in [9] were 3.48 µM, 4.81 µM and 2.48 µM, respectively.

For the compound `NC(CC(=O)Nc1ccc(Cl)cc1)=Nc1ccccc1`, the TGI in assay [1], in assay [3], in [4], in assay [10], in assay [5] and in [6] was greater than 100 µM in each case. Further, the TGI in assay [7], in [8] and in assay [9] was greater than 100 µM each time.

`COc1ccc([I+]c2ccccc2)cc1`: the GI50 in [2] was 42.1 µM; in assay [3], 2.91 µM; in assay [4], 4.22 µM; in assay [10], 1.34 µM; in assay [5], 1.37 µM; in assay [6], 25.9 µM. Moreover, the figures for the GI50 in [7], in assay [8] and in assay [9] were 50.2 µM, 1.78 µM and 37.2 µM, respectively. The TGI in assay [2] is greater than 100 µM; in [3], 79.2 µM; in assay [4] it was greater than 100 µM; in [10], greater than 100 µM; in assay [5], greater than 100 µM; in [6], greater than 100 µM. Further, the TGI in assay [7], in [8] and in [9] was greater than 100 µM throughout.

As for `CC1(C)CCC[C@]2(C)c3cc(O)ccc3CC[C@@H]12`, the GI50 in assay [1] was 21.5 µM; in assay [2] it was 17.1 µM; in assay [4], 23.2 µM; in [10] it was 16.6 µM; in assay [5] it was 21.7 µM; in assay [6] it was 19.6 µM. The GI50 in [8] was 8.72 µM; in assay [9] it was 13.1 µM. The TGI in [1] stood at 36.7 µM; in assay [2] it was 35.2 µM; in assay [4], 43.7 µM; in [10], 33.6 µM; in [5], 41.1 µM; in [6], 37 µM. Moreover, the TGI in [8] is greater than 100 µM; in assay [9], 25.8 µM.

For the compound `O=C(O)C1C(=O)Oc2c(cccc2[N+](=O)[O-])C1O` (stereo not given), the TGI in assay [1], in assay [2], in [3], in assay [4], in assay [10] and in assay [5] was greater than 100 µM throughout. The TGI in assay [6], in assay [8] and in assay [9] was greater than 100 µM throughout.

In the case of `O=c1cc(-c2ccccc2)[nH]c2c(Cl)cccc12`, the TGI is greater than 100 µM in assay [1]; greater than 100 µM in assay [2]; greater than 100 µM in assay [3]; greater than 100 µM in assay [4]; 66.3 µM in [10]; greater than 100 µM in [5]. For the same compound, the TGI in assay [6] was greater than 100 µM; in assay [8], greater than 100 µM; in assay [9], 67.3 µM.
